Assay results published in PubChem BioAssay AID1918946 (Molecular Pharmacology Branch, DTP, NCI, 2023).

System: 885512-296-R-J2-PDC complex spheroid viability
Assay: Anticancer human tumor 885512-296-R-J2-PDC patient-derived breast carcinoma cell line growth inhibition
Conditions: for IC50: curve of first compound; for viability, T/C: stronger effect = lower value
Summary of the method: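 Multicellular complex spheroids of tumor cells with human endothelial cells (HUVEC) and mesenchymal stem cells; the LSD1 inhibitor iadademstat was combined with standard-of-care or investigational agents. Top concentration at or near clinical Cmax, half-log dilutions; final DMSO ≤0.25%.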

[1] = second compound 0.1 µM, first compound 0.000316 µM
[2] = second compound 0.1 µM, first compound 0.001 µM
[3] = second compound 0.1 µM, first compound 0.00316 µM
[4] = second compound 0.1 µM, first compound 0.01 µM
[5] = second compound 0.1 µM, first compound 0.0316 µM
[6] = second compound 0.1 µM, first compound 0.1 µM
[7] = second compound 0.316 µM, first compound 0.000316 µM
[8] = second compound 0.316 µM, first compound 0.001 µM
[9] = second compound 0.316 µM, first compound 0.00316 µM
[10] = second compound 0.316 µM, first compound 0.01 µM
[11] = second compound 0.316 µM, first compound 0.0316 µM
[12] = second compound 0.316 µM, first compound 0.1 µM
[13] = second compound 1 µM, first compound 0.000316 µM
[14] = second compound 1 µM, first compound 0.001 µM
[15] = second compound 1 µM, first compound 0.00316 µM
[16] = second compound 1 µM, first compound 0.01 µM
[17] = second compound 1 µM, first compound 0.0316 µM
[18] = second compound 1 µM, first compound 0.1 µM
[19] = second compound 3.16 µM, first compound 0.000316 µM
[20] = second compound 3.16 µM, first compound 0.001 µM
[21] = second compound 3.16 µM, first compound 0.00316 µM
[22] = second compound 3.16 µM, first compound 0.01 µM
[23] = second compound 3.16 µM, first compound 0.0316 µM
[24] = second compound 3.16 µM, first compound 0.1 µM
[25] = second compound 10 µM, first compound 0.000316 µM
[26] = second compound 10 µM, first compound 0.001 µM
[27] = second compound 10 µM, first compound 0.00316 µM
[28] = second compound 10 µM, first compound 0.01 µM
[29] = second compound 10 µM, first compound 0.0316 µM
[30] = second compound 10 µM, first compound 0.1 µM
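Further: spheroids exposed to agents for 7 days before viability read.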

SMILES	IC50 (second compound 0.1 µM)	IC50 (second compound 0.316 µM)	IC50 (second compound 1 µM)	IC50 (second compound 3.16 µM)	IC50 (second compound 10 µM)	viability, T/C [3]	viability, T/C [4]	viability, T/C [5]	viability, T/C [6]	viability, T/C [9]	viability, T/C [10]	viability, T/C [11]	viability, T/C [12]	viability, T/C [15]	viability, T/C [16]	viability, T/C [17]	viability, T/C [18]	viability, T/C [21]	viability, T/C [22]	viability, T/C [23]	other results
CC(C)CC(NC(=O)C(Cc1ccccc1)NC(=O)c1cnccn1)B(O)O (stereo not given) + NC1CCC(NC2CC2c2ccccc2)CC1	1.3 nM	1.34 nM	1.38 nM	1.33 nM	1.09 nM	2.42%	0.24%	7.32%	3.74%	2.51%	0.43%	7.09%	3.61%	2.46%	0.35%	3.66%	3.45%	1.59%	0.23%	0.08%	viability, T/C [1]: 149%; viability, T/C [2]: 63.9%; viability, T/C [7]: 134%; viability, T/C [8]: 65.7%; viability, T/C [13]: 152%; viability, T/C [14]: 68.4%; viability, T/C [19]: 137%; viability, T/C [20]: 66.2%; viability, T/C [24]: 0.08%; viability, T/C [25]: 138%; viability, T/C [26]: 54%; viability, T/C [27]: 1.4%; viability, T/C [28]: 0.2%; viability, T/C [29]: 0.09%; viability, T/C [30]: 0.13%
CC(C)CC(NC(=O)CNC(=O)c1cc(Cl)ccc1Cl)B1OC(=O)CC(CC(=O)O)(C(=O)O)O1 (stereo not given) + NC1CCC(NC2CC2c2ccccc2)CC1	6.41 nM	6.9 nM	6.61 nM	6.51 nM	5.07 nM	102%	16.9%	4.82%	8.2%	106%	23.3%	3.92%	3.86%	103%	20.4%	4.02%	6.64%	110%	14.4%	5.03%	viability, T/C [1]: 148%; viability, T/C [2]: 136%; viability, T/C [7]: 125%; viability, T/C [8]: 126%; viability, T/C [13]: 121%; viability, T/C [14]: 131%; viability, T/C [19]: 124%; viability, T/C [20]: 117%; viability, T/C [24]: 1.02%; viability, T/C [25]: 107%; viability, T/C [26]: 107%; viability, T/C [27]: 76.3%; viability, T/C [28]: 12%; viability, T/C [29]: 2.47%; viability, T/C [30]: 0.56%
COc1cc(Nc2ncc3c(n2)-c2ccc(Cl)cc2C(c2c(F)cccc2OC)=NC3)ccc1C(=O)O + NC1CCC(NC2CC2c2ccccc2)CC1	8.96 nM	7.35 nM	7.37 nM	9.53 nM	5.12 nM	78.8%	42.8%	33.2%	24%	90.6%	31.3%	34.2%	39.1%	90.9%	29.4%	37.3%	22.1%	87.4%	42.1%	33.7%	viability, T/C (second compound 0.1 µM, first compound 0.316 µM): 12.3%; viability, T/C (second compound 0.1 µM, first compound 1 µM): 13.2%; viability, T/C (second compound 0.316 µM, first compound 0.316 µM): 14.5%; viability, T/C (second compound 0.316 µM, first compound 1 µM): 11.5%; viability, T/C (second compound 1 µM, first compound 0.316 µM): 17.5%; viability, T/C (second compound 1 µM, first compound 1 µM): 13.2%; viability, T/C [24]: 38.1%; viability, T/C (second compound 3.16 µM, first compound 0.316 µM): 14.6%; viability, T/C (second compound 3.16 µM, first compound 1 µM): 16.6%; viability, T/C [27]: 70.5%; viability, T/C [28]: 21.4%; viability, T/C [29]: 29.7%; viability, T/C [30]: 22.7%; viability, T/C (second compound 10 µM, first compound 0.316 µM): 17.1%; viability, T/C (second compound 10 µM, first compound 1 µM): 15.3%
